For 29 molecules, EC50 results are on record in US20240173307A1, “MODULATORS OF THE INTEGRATED STRESS PATHWAY” (Calico Life Sciences LLC, priority 2017, published 2024).

The assay relates to HEK293T cells carrying the ATF4 luciferase reporter. Nature of the assay: ATF4-Luc assay (in vitro model of vanishing white matter disease). The class given is cell-based. As to conditions: Homo sapiens, HEK-293T, 1 μg/mL tunicamycin, 7 hours. How it is done: In order to test exemplary compounds of the invention in a cellular context, a stable VWMD cell line was first constructed. The ATF4 reporter was prepared by fusing the human full-length ATF4 5′-UTR (NCBI Accession No. BCO22088.2) in front of the firefly luciferase (FLuc) coding sequence lacking the initiator methionine as described in Sidrauski et al (eLife 2013). The construct was used to produce recombinant retroviruses using standard methods and the resulting viral supernatant was used to transduce HEK293T cells, which were then subsequently selected with puromycin to generate a stable cell line.
HEK293T cells carrying the ATF4 luciferase reporter were plated on polylysine coated 384-well plates (Greiner Bio-one) at 30,000 cells per well. Cells were treated the next day with 1 μg/mL tunicamycin and 200 nM of a compound of Formula (I) for 7 hours. Luminescence was measured using One Glo (Promega) as specified by the manufacturer. Cells were maintained in DMEM with L-glutamine supplemented with 10% heat-inactivated FBS (Gibco) and Antibiotic-Antimycotic solution (Gibco).
Table 2 below summarizes the EC50 data obtained using the ATF4-Luc assay for exemplary compounds of the invention.
As to `N#Cc1ccc(NC(=O)C23CC(NC(=O)COc4ccc(Cl)c(F)c4)(C2)C3)nc1` [Compound 305, 3-[2-(4-chloro-3-fluorophenoxy)acetamido]-N-(5-cyanopyridin-2-yl)bicyclo[1.1.1]pentane-1-carboxamide], the EC50 is under 250 nM.

Turning to `O=C(COc1ccc(Cl)c(F)c1)NC12CCC(C(=O)NCc3ccc(C(F)(F)F)cn3)(CC1)C[C@@H]2O` (single isomer, unassigned) [Compound 272], the EC50 is under 250 nM.

As for `O=C(COc1ccc(Cl)c(F)c1)NC12CCC(C(=O)Nc3ccc(OC(F)(F)F)nc3)(CC1)CC2` [Compound 280, 4-[2-(4-chloro-3-fluorophenoxy)acetamido]-N-[6-(trifluoromethoxy)pyridin-3-yl]bicyclo[2.2.2]octane-1-carboxamide], the EC50 was under 250 nM.

In the case of `O=C(COc1ccc(Cl)c(F)c1)NC12CC(C(=O)Nc3ccccc3)(C1)C2` [Compound 285, 3-[2-(4-chloro-3-fluorophenoxy)acetamido]-N-phenylbicyclo[1.1.1]pentane-1-carboxamide], the concentration giving a half-maximal response (EC50) was under 250 nM.

Take `O=C(COc1ccc(Cl)c(F)c1)NC12CCC(C(=O)Nc3ccc(OC(F)(F)F)cn3)(CC1)CC2` [Compound 279, 4-[2-(4-chloro-3-fluorophenoxy)acetamido]-N-[5-(trifluoromethoxy)pyridin-2-yl]bicyclo[2.2.2]octane-1-carboxamide]: the EC50 was under 250 nM.

As for `O=C(COc1ccc(Cl)c(Cl)c1)NC12CC(C(=O)Nc3ccc(OC(F)(F)F)cn3)(C1)C2` [Compound 291, 3-[2-(3,4-dichlorophenoxy)acetamido]-N-[5-(trifluoromethoxy)pyridin-2-yl]bicyclo[1.1.1]pentane-1-carboxamide], the EC50 is under 250 nM.

With `O=C(COc1ccc(Cl)c(F)c1)NC12CCC(C(=O)Nc3ccc(OC(F)F)nc3)(CC1)CC2` [Compound 278, 4-[2-(4-chloro-3-fluorophenoxy)acetamido]-N-[6-(difluoromethoxy)pyridin-3-yl]bicyclo[2.2.2]octane-1-carboxamide], the half-maximal effective concentration (EC50) is under 250 nM.

For the molecule `COc1cnc(NC(=O)C23CC(NC(=O)COc4ccc(Cl)c(F)c4)(C2)C3)nc1` [Compound 302, 3-[2-(4-chloro-3-fluorophenoxy)acetamido]-N-(5-methoxypyrimidin-2-yl)bicyclo[1.1.1]pentane-1-carboxamide], the EC50 was in the range of 250 to 500 nM.

For `O=C(COc1ccc(Cl)c(F)c1)NC12CCC(C(=O)Nc3ccc(C(F)(F)F)cn3)(CC1)C(O)C2` (centres unmarked) [Compound 316, 4-[2-(4-chloro-3-fluorophenoxy)acetamido]-2-hydroxy-N-[5-(trifluoromethyl)pyridin-2-yl]bicyclo[2.2.2]octane-1-carboxamide], the EC50 was in the range of 500 to 1000 nM.

In the case of `CCOC(=O)c1ccc(NC(=O)C23CC(NC(=O)COc4ccc(Cl)c(F)c4)(C2)C3)nc1` [Compound 311, ethyl 6-({3-[2-(4-chloro-3-fluorophenoxy)acetamido]bicyclo[1.1.1]pentane-1-carbonyl}amino)pyridine-3-carboxylate], the concentration for a half-maximal effect (EC50) lay within 250 to 500 nM.

For the molecule `O=C(COc1ccc(Cl)c(F)c1)NC12CCC(C(=O)Nc3ccc(OC(F)(F)F)cn3)(C1)C2` [Compound 288, 4-[2-(4-chloro-3-fluorophenoxy)acetamido]-N-[5-(trifluoromethoxy)pyridin-2-yl]bicyclo[2.1.1]hexane-1-carboxamide], the concentration for a half-maximal effect (EC50) is under 250 nM.

For the molecule `O=C(COc1ccc(Cl)c(F)c1)NC12CCC(C(=O)NCc3nc4ccc(Cl)cc4[nH]3)(CC1)CC2` [Compound 325, N-[(6-chloro-1H-benzimidazol-2-yl)methyl]-4-[2-(4-chloro-3-fluorophenoxy)acetamido]bicyclo[2.2.2]octane-1-carboxamide], the 50% effective concentration (EC50) is under 250 nM.

`O=C(COc1ccc(Cl)c(F)c1)NC12CCC(C(=O)NCc3ccc(C(F)(F)F)cc3)(CC1)CC2O` (centres unmarked) [Compound 274, 4-[2-(4-chloro-3-fluorophenoxy)acetamido]-3-hydroxy-N-{[4-(trifluoromethyl)phenyl]methyl}bicyclo[2.2.2]octane-1-carboxamide]: the EC50 was under 250 nM.

With `O=C(COc1ccc(Cl)c(Cl)c1)NC12CCC(C(=O)NCc3ccc(C(F)(F)F)cc3)(CC1)[C@@H](O)C2` (single isomer, unassigned) [Compound 264], the half-maximal effective concentration (EC50) is under 250 nM.

As for `O=C(COc1ccc(Cl)c(F)c1)NC12CC(C(=O)NCCOc3ccc(Cl)c(F)c3)(C1)C2` [Compound 340, 3-[2-(4-chloro-3-fluorophenoxy)acetamido]-N-[2-(4-chloro-3-fluorophenoxy)ethyl]bicyclo[1.1.1]pentane-1-carboxamide], the EC50 was under 250 nM.

For the molecule `O=C(COc1ccc(Cl)c(F)c1)NC12CCC(C(=O)NCc3ccc(C(F)F)cn3)(CC1)CC2` [Compound 346, 4-[2-(4-chloro-3-fluorophenoxy)acetamido]-N-{[5-(difluoromethyl)pyridin-2-yl]methyl}bicyclo[2.2.2]octane-1-carboxamide], the EC50 was under 250 nM.

`O=C(COc1ccc(Cl)c(F)c1)NC12CCC(C(=O)NCc3ccc(C(F)(F)F)cn3)(CC1)CC2O` (centres unmarked) [Compound 275, 4-[2-(4-chloro-3-fluorophenoxy)acetamido]-3-hydroxy-N-{[5-(trifluoromethyl)pyridin-2-yl]methyl}bicyclo[2.2.2]octane-1-carboxamide]: the EC50 is under 250 nM.

With `O=C(COc1ccc2c(c1)OC(F)(F)O2)NC12CC(C(=O)Nc3ccc(OC(F)(F)F)cn3)(C1)C2` [Compound 294, 3-{2-[(2,2-difluoro-2H-1,3-benzodioxol-5-yl)oxy]acetamido}-N-[5-(trifluoromethoxy)pyridin-2-yl]bicyclo[1.1.1]pentane-1-carboxamide], the concentration for a half-maximal effect (EC50) is under 250 nM.

Take `Cn1c(CNC(=O)C23CCC(NC(=O)COc4ccc(Cl)c(F)c4)(CC2)CC3)nc2cc(F)ccc21` [Compound 323, 4-[2-(4-chloro-3-fluorophenoxy)acetamido]-N-[(5-fluoro-1-methyl-1H-benzimidazol-2-yl)methyl]bicyclo[2.2.2]octane-1-carboxamide]: the EC50 is under 250 nM.

`O=C(COc1ccc(Cl)c(F)c1)NC12CC(C(=O)NCCc3c[nH]c4ccccc34)(C1)C2` [Compound 194, 3-[2-(4-chloro-3-fluorophenoxy)acetamido]-N-[2-(1H-indol-3-yl)ethyl]bicyclo[1.1.1]pentane-1-carboxamide]: the concentration giving a half-maximal response (EC50) is under 250 nM.

In the case of `O=C(COc1ccc(Cl)c(F)c1)NC12CC(C(=O)Nc3ccc(C(F)F)cn3)(C1)C2` [Compound 298, 3-[2-(4-chloro-3-fluorophenoxy)acetamido]-N-[5-(difluoromethyl)pyridin-2-yl]bicyclo[1.1.1]pentane-1-carboxamide], the EC50 is under 250 nM.

On to `O=C(COc1ccc(Cl)c(F)c1)NC12CCC(C(=O)N(CCO)Cc3ccc(Cl)c(F)c3)(CC1)CC2` [Compound 344, 4-[2-(4-chloro-3-fluorophenoxy)acetamido]-N-[(4-chloro-3-fluorophenyl)methyl]-N-(2-hydroxyethyl)bicyclo[2.2.2]octane-1-carboxamide], for which the concentration giving a half-maximal response (EC50) was 1000 to 2000 nM.

As to `COc1ccc(NC(=O)C23CC(NC(=O)COc4ccc(Cl)c(F)c4)(C2)C3)nc1` [Compound 303, 3-[2-(4-chloro-3-fluorophenoxy)acetamido]-N-(5-methoxypyridin-2-yl)bicyclo[1.1.1]pentane-1-carboxamide], the EC50 is 250 to 500 nM.

In the case of `O=C(COc1ccc(Cl)c(F)c1)NC12CCC(C(=O)Nc3ccc(OC(F)F)nc3)(C1)C2` [Compound 268, 4-[2-(4-chloro-3-fluorophenoxy)acetamido]-N-[6-(difluoromethoxy)pyridin-3-yl]bicyclo[2.1.1]hexane-1-carboxamide], the EC50 fell in the range of 250 to 500 nM.

For the molecule `O=C(COc1ccc2c(c1)OC(F)(F)O2)NC12CCC(C(=O)Nc3ccc(OC(F)(F)F)cn3)(C1)C2` [Compound 293, 4-{2-[(2,2-difluoro-2H-1,3-benzodioxol-5-yl)oxy]acetamido}-N-[5-(trifluoromethoxy)pyridin-2-yl]bicyclo[2.1.1]hexane-1-carboxamide], the 50% effective concentration (EC50) lay in the range of 250 to 500 nM.

`CC(NC(=O)C12CC(NC(=O)COc3ccc(Cl)c(F)c3)(C1)C2)c1cc2cc(Cl)ccc2o1` (centres unmarked) [Compound 330, N-[1-(5-chloro-1-benzofuran-2-yl)ethyl]-3-[2-(4-chloro-3-fluorophenoxy)acetamido]bicyclo[1.1.1]pentane-1-carboxamide]: the EC50 lay within 1000 to 2000 nM.

For `Cc1cnc(CNC(=O)C23CCC(NC(=O)COc4ccc(Cl)c(F)c4)(CC2)CC3)cn1` [Compound 258, 4-[2-(4-chloro-3-fluorophenoxy)acetamido]-N-[(5-methylpyrazin-2-yl)methyl]bicyclo[2.2.2]octane-1-carboxamide], the EC50 fell in the range of 500 to 1000 nM.

For `O=C(COc1ccc(Cl)c(F)c1)NC12CC(C(=O)Nc3ccc(C4CC4)cn3)(C1)C2` [Compound 306, 3-[2-(4-chloro-3-fluorophenoxy)acetamido]-N-(5-cyclopropylpyridin-2-yl)bicyclo[1.1.1]pentane-1-carboxamide], the concentration giving a half-maximal response (EC50) was under 250 nM.

`O=C(COc1ccc(Cl)c(F)c1)NC12CCC(C(=O)Nc3ccc(OCC(F)(F)F)nc3)(CC1)CC2` [Compound 281, 4-[2-(4-chloro-3-fluorophenoxy)acetamido]-N-[6-(2,2,2-trifluoroethoxy)pyridin-3-yl]bicyclo[2.2.2]octane-1-carboxamide]: the EC50 was over 2000 nM.

In general, EC50 refers to the midpoint of the concentration-response curve.
